In PubChem BioAssay AID328 (DTP/NCI, 2004) one finds T/C data, which are given here for 24 compounds.

“And” between values parts separate entries of the source, which are not always exact repeats. Equal entries are not always repeated. Inconclusive results and toxic doses are left out.

The assay concerns BDF1 mice, P388 leukemia ip, median survival T/C. The assay is described as follows: NCI In Vivo Anticancer Drug Screen. Data for tumor model P388 Leukemia (intraperitoneal) in B6D2F1 (BDF1) mice. The conditions noted are these: endpoint: median survival time, higher = longer survival. In a few lines: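 In tumour-bearing mice, survival after compound treatment is set against the vehicle group and given as a quotient.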

[1] abbreviates: dose: 6.25 mg/kg/injection, schedule: Q01DX009 (ip), vehicle: Klucel (hydroxypropylcellulose) (HPC).
The mark [2] stands for this setting: dose: 12.5 mg/kg/injection, schedule: Q01DX009 (ip), vehicle: Klucel (hydroxypropylcellulose) (HPC).
[3] abbreviates: dose: 25.0 mg/kg/injection, schedule: Q01DX009 (ip), vehicle: Klucel (hydroxypropylcellulose) (HPC).
Where [4] appears, read: dose: 12.5 mg/kg/injection, schedule: Q01DX009 (ip), vehicle: saline with Tween-80.
[5] abbreviates: dose: 25.0 mg/kg/injection, schedule: Q01DX009 (ip), vehicle: saline with Tween-80.
Setting [6] is: dose: 50.0 mg/kg/injection, schedule: Q01DX009 (ip), vehicle: saline with Tween-80.
Setting [7] is: dose: 100.0 mg/kg/injection, schedule: Q01DX009 (ip), vehicle: saline with Tween-80.
The mark [8] stands for this setting: dose: 200.0 mg/kg/injection, schedule: Q01DX009 (ip), vehicle: saline with Tween-80.
Setting [9] is: dose: 100.0 mg/kg/injection, schedule: Q04DX003 (ip), vehicle: saline with Tween-80.
The mark [10] stands for this setting: dose: 200.0 mg/kg/injection, schedule: Q04DX003 (ip), vehicle: saline with Tween-80.
[11] abbreviates: dose: 400.0 mg/kg/injection, schedule: Q04DX003 (ip), vehicle: saline with Tween-80.

Take `NC(N)=N/N=C/c1ccc(Cl)c(Cl)c1`: the T/C is 102 % of control under setting [1]; 100 % of control under setting [2]; 94 % of control under setting [3]; 100 % of control (dose: 50.0 mg/kg/injection, schedule: Q01DX009 (ip), vehicle: Klucel (hydroxypropylcellulose) (HPC)).

In the case of `NC(=NCCCC(NCc1ccccc1)C(=O)O)N[N+](=O)[O-]` (centres undefined), the T/C (dose: 50.0 mg/kg/injection, schedule: Q04DX003 (ip), vehicle: saline + alcohol) was 103 % of control; the T/C (dose: 100.0 mg/kg/injection, schedule: Q04DX003 (ip), vehicle: saline + alcohol) is 99 % of control; the T/C (dose: 200.0 mg/kg/injection, schedule: Q04DX003 (ip), vehicle: saline + alcohol) was 94 % of control; the T/C (dose: 400.0 mg/kg/injection, schedule: Q04DX003 (ip), vehicle: saline + alcohol) was 105 % of control.

Turning to `COC(=O)CCCc1ccc(OC)c(OC)c1`, the T/C was 96 % of control under setting [4]; 100 % of control under setting [5]; 97 % of control and 123 % of control under setting [6]; 97 % of control and 113 % of control under setting [7]; 105 % of control under setting [8].

Take `CCCCn1cnc2c(SC3CCCC3)ncnc21`: the T/C is, setting by setting: (dose: 100.0 mg/kg/injection, schedule: Q01DX009 (ip), vehicle: other) 100 % of control; (dose: 100.0 mg/kg/injection, schedule: Q04DX003 (ip), vehicle: saline sonified) 100 % of control; (dose: 200.0 mg/kg/injection, schedule: Q01DX009 (ip), vehicle: other) 90 % of control; (dose: 200.0 mg/kg/injection, schedule: Q04DX003 (ip), vehicle: saline sonified) 100 % of control; (dose: 400.0 mg/kg/injection, schedule: Q01DX009 (ip), vehicle: other) 120 % of control; (dose: 400.0 mg/kg/injection, schedule: Q04DX003 (ip), vehicle: saline sonified) 100 % of control.

Turning to `CC(C)OC(CCC#N)c1ccc(Cl)cc1` (centres undefined), the T/C is, setting by setting: (dose: 100.0 mg/kg/injection, schedule: Q04DX003 (ip), vehicle: other) 95 % of control; (dose: 400.0 mg/kg/injection, schedule: Q04DX003 (ip), vehicle: other) 95 % of control.

Take `O=C(NC1CCCCC1)N(c1ccccc1)c1nnc(-c2cccc([N+](=O)[O-])c2)s1`: the T/C is, setting by setting: under setting [6], 104 % of control; under setting [7], 95 % of control; under setting [8], 115 % of control.

With `CC(=O)CC(C)=O.CC(=O)CC(C)=O.O.O.[Ni]`, the T/C is 108 % of control (dose: 6.25 mg/kg/injection, schedule: Q04DX003 (ip), vehicle: saline); 104 % of control (dose: 12.5 mg/kg/injection, schedule: Q04DX003 (ip), vehicle: saline); 114 % of control (dose: 25.0 mg/kg/injection, schedule: Q04DX003 (ip), vehicle: saline).

`O=c1c(N=Nc2ccccc2)c[nH]n1-c1ccccc1`: the T/C runs as follows: (dose: 62.5 mg/kg/injection, schedule: Q01DX009 (ip), vehicle: saline with Tween-80) 90 % of control; (dose: 250.0 mg/kg/injection, schedule: Q01DX009 (ip), vehicle: saline with Tween-80) 88 % of control.

Consider `CN(C)c1ccc(Cc2ccc(N(C)C)cc2[N+](=O)[O-])c([N+](=O)[O-])c1`, for which the T/C runs as follows: (dose: 100.0 mg/kg/injection, schedule: Q04DX003 (ip), vehicle: Klucel (hydroxypropylcellulose) (HPC)) 104 % of control; (dose: 200.0 mg/kg/injection, schedule: Q04DX003 (ip), vehicle: Klucel (hydroxypropylcellulose) (HPC)) 100 % of control; (dose: 400.0 mg/kg/injection, schedule: Q04DX003 (ip), vehicle: Klucel (hydroxypropylcellulose) (HPC)) 95 % of control.

`O=C1C(O)=Cc2cn(CCO)c(=O)c3ccc(-c4ccccc4)c1c23`: the T/C was 100 % of control (dose: 50.0 mg/kg/injection, schedule: Q01DX001 (ip), vehicle: Klucel (hydroxypropylcellulose) (HPC)); 100 % of control (dose: 100.0 mg/kg/injection, schedule: Q01DX001 (ip), vehicle: Klucel (hydroxypropylcellulose) (HPC)); 104 % of control (dose: 200.0 mg/kg/injection, schedule: Q01DX001 (ip), vehicle: Klucel (hydroxypropylcellulose) (HPC)).

With `CCOC(=O)NC12c3ccccc3C(c3ccccc31)C(C(=O)O)C2C(=O)O` (centres undefined), the T/C under setting [9] is 118 % of control, the T/C under setting [10] was 118 % of control and the T/C under setting [11] was 118 % of control.

Regarding `O=[N+]([O-])c1ccc(/C=C/c2cc(N(CCO)CCO)c3ccccc3n2)cc1`, the T/C under setting [6] is 94 % of control, the T/C under setting [7] is 99 % of control and the T/C under setting [8] is 100 % of control.

As to `CC(C)CCCC(=O)CCCCCCC(=O)CCN(O)C(=O)C(N)CO` (centres undefined), the T/C by setting is: under setting [1], 98 % of control; under setting [2], 94 % of control; under setting [3], 94 % of control.

For `CCP(=Nc1cc(C(C)(C)C)cc(C(C)(C)C)c1O)(c1ccccc1)c1ccccc1`, the T/C is 96 % of control under setting [6], 91 % of control under setting [7] and 89 % of control under setting [8].

As to `COC(=O)/C=C/c1ccc([N+](=O)[O-])cc1`, the T/C under setting [9] is 118 % of control, the T/C under setting [10] is 113 % of control and the T/C under setting [11] was 109 % of control.

Consider `Cc1ccc(S(=O)(=O)N(C)c2ccc(C#N)c(Cl)c2Cl)cc1`, for which the T/C runs as follows: under setting [9], 90 % of control; under setting [10], 86 % of control; under setting [11], 90 % of control.

`CCOC(=O)C(F)C(Br)C(=O)OCC` (centres undefined): the T/C was 96 % of control and 101 % of control under setting [6]; 116 % of control under setting [7]; 154 % of control under setting [8].

With `O=C1c2cc(Cl)ccc2-c2c(NC(=O)C(Cl)Cl)cc(Cl)cc21`, the T/C under setting [9] is 104 % of control, the T/C under setting [10] is 113 % of control and the T/C under setting [11] was 104 % of control.

On to `Cc1ccc(S(=O)(=O)CC([Se]C#N)c2ccccc2)cc1` (centres undefined), for which the T/C reads like this: under setting [9], 105 % of control; under setting [10], 92 % of control; under setting [11], 89 % of control.

Regarding `O=C(Nc1ccc(Cl)cc1)O/N=C/c1ccccn1`, the T/C runs as follows: (dose: 100.0 mg/kg/injection, schedule: Q01DX001 (ip), vehicle: saline with Tween-80) 95 % of control; (dose: 200.0 mg/kg/injection, schedule: Q01DX001 (ip), vehicle: saline with Tween-80) 104 % of control; (dose: 400.0 mg/kg/injection, schedule: Q01DX001 (ip), vehicle: saline with Tween-80) 90 % of control.

Regarding `CC(C)C1(C)NC(=O)NC1=O` (centres undefined), the T/C was 113 % of control (dose: 100.0 mg/kg/injection, schedule: Q01DX001 (ip), vehicle: saline); 109 % of control (dose: 200.0 mg/kg/injection, schedule: Q01DX001 (ip), vehicle: saline); 95 % of control (dose: 400.0 mg/kg/injection, schedule: Q01DX001 (ip), vehicle: saline).

Regarding `O=NN(CCF)C(=O)NC1CCCCC1`, the T/C was 90 % of control (dose: 1.0 mg/kg/injection, schedule: Q04DX003 (ip), vehicle: saline with Tween-80); 105 % of control (dose: 2.0 mg/kg/injection, schedule: Q04DX003 (ip), vehicle: saline with Tween-80); 120 % of control (dose: 4.0 mg/kg/injection, schedule: Q04DX003 (ip), vehicle: saline with Tween-80); 217 % of control (dose: 6.25 mg/kg/injection, schedule: Q01DX009 (ip), vehicle: saline with Tween-80); 260 % of control under setting [4]; 272 % of control (dose: 16.5 mg/kg/injection, schedule: Q04DX003 (ip), vehicle: saline with Tween-80). In addition, the T/C reads like this: under setting [5], 121 % of control; (dose: 25.0 mg/kg/injection, schedule: Q04DX003 (ip), vehicle: saline with Tween-80) 95 % of control; (dose: 37.5 mg/kg/injection, schedule: Q04DX003 (ip), vehicle: saline with Tween-80) 95 % of control.

On to `O=CCC(O)C(O)C(O)CO` (centres undefined), for which the T/C was 100 % of control (dose: 94.0 mg/kg/injection, schedule: Q01DX010 (ip), vehicle: saline); 100 % of control (dose: 188.0 mg/kg/injection, schedule: Q01DX010 (ip), vehicle: saline); 113 % of control (dose: 375.0 mg/kg/injection, schedule: Q01DX010 (ip), vehicle: saline); 100 % of control (dose: 750.0 mg/kg/injection, schedule: Q01DX010 (ip), vehicle: saline).

In the case of `CC(C)(C)c1ccc(OCCCOc2ccc(C(=O)O)cc2)cc1`, the T/C reads like this: (dose: 12.5 mg/kg/injection, schedule: Q04DX003 (ip), vehicle: saline sonified) 95 % of control; (dose: 25.0 mg/kg/injection, schedule: Q04DX003 (ip), vehicle: saline sonified) 95 % of control; (dose: 50.0 mg/kg/injection, schedule: Q04DX003 (ip), vehicle: saline sonified) 91 % of control.
